Results published in US20240279218A1 (Hoffmann-La Roche Inc., priority 2016, published 2024).

Assays:
[1] = target: T1, h-GABA-A α5β3γ2 (Homo sapiens (Human), UniProt P18507+P31644); assay: Two-electrode voltage clamp electrophysiology in Xenopus oocytes expressing GABAA receptors, modulation of GABA EC20 current; type: cell-based; conditions: Xenopus oocytes; for Efficacy (GABA) %: % modulation of GABA EC20 = 100*(Fold increase−1); for Fold increase h-GABA-A α5β3γ2 oocyte: GABA EC20, test compound at approx. 30 fold its Ki
In short: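 Values are % modulation of an EC20 GABA response, derived point by point from the ratio of compound-exposed versus control current traces (extremum taken, 100×(fold−1)). Recordings used oocytes injected with human α5, β3, γ2 mRNA, clamped at −80 mV at room temperature, at least 3 oocytes each.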

[2] = target: T1, h-GABA-A α5β3γ2; assay: [3H]flumazenil competition binding assay, membranes of HEK293 cells expressing human GABAA receptors; conditions: displacement of [3H]flumazenil 0.5 nM, HEK293 cells expressing human receptors, mean of two determinations; read-out: Ki h-GABA-A α5β3γ2
In short: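 Displacement of [3H]flumazenil from membranes of HEK293 cells transiently expressing human α5β3γ2 receptors, in Krebs-tris buffer pH 7.5. Incubation to equilibrium, 1 h at 4° C., then filtration and scintillation counting. Ki is the mean of two determinations.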

Structure (SMILES)	Efficacy (GABA) % [1]	Fold increase h-GABA-A α5β3γ2 oocyte [1]	Ki [2]
Cc1ccc(-c2noc(C)c2COc2ccc(C(=O)N3CC(F)(F)C3)nn2)cn1 [Example 47, (3,3-difluoroazetidin-1-yl)(6-((5-methyl-3-(6-methylpyridin-3-yl)isoxazol-4-yl)methoxy)pyridazin-3-yl)methanone]	68%	1.68	13 nM
Cc1ccc(-c2noc(C)c2COc2ccc(C(=O)N3CCC(F)(F)C3)nn2)cn1 [Example 48, (3,3-difluoropyrrolidin-1-yl)(6-((5-methyl-3-(6-methylpyridin-3-yl)isoxazol-4-yl)methoxy)pyridazin-3-yl)methanone]	74%	1.74	31.6 nM
Cc1ccc(-c2noc(C)c2COc2ccc(C(=O)N3CCC(F)(F)CC3)nn2)cn1 [Example 53, (4,4-difluoropiperidin-1-yl)(6-((5-methyl-3-(6-methylpyridin-3-yl)isoxazol-4-yl)methoxy)pyridazin-3-yl)methanone]	80%	1.8	95.8 nM
Cc1ccc(-c2noc(C)c2COc2ccc(C(=O)N3CC(C)(O)C3)nn2)cn1 [Example 56, (3-hydroxy-3-methylazetidin-1-yl)(6-((5-methyl-3-(6-methylpyridin-3-yl)isoxazol-4-yl)methoxy)pyridazin-3-yl)methanone]	64%	1.64	7.9 nM
Cc1ccc(-c2noc(C)c2COc2ccc(C(=O)NC3(C(F)(F)F)CC3)nn2)cn1 [Example 59, 6-((5-methyl-3-(6-methylpyridin-3-yl)isoxazol-4-yl)methoxy)-N-(1-(trifluoromethyl)cyclopropyl)pyridazine-3-carboxamide]	93%	1.93	10.4 nM
Cc1ccc(-c2noc(C)c2COc2cc(C)c(C(=O)NC3CCOCC3)nn2)cn1 [Example 62, 4-methyl-6-((5-methyl-3-(6-methylpyridin-3-yl)isoxazol-4-yl)methoxy)-N-(tetrahydropyran-4-yl)pyridazine-3-carboxamide]	42%	1.42	20.8 nM
Cc1ccc(-c2noc(C)c2COc2ccc(C(=O)N3CCC34COC4)nn2)cn1 [Example 63, (6-((5-methyl-3-(6-methylpyridin-3-yl)isoxazol-4-yl)methoxy)pyridazin-3-yl)(6-oxa-1-azaspiro[3.3]heptan-1-yl)methanone]	79%	1.79	4.6 nM
Cc1ccc(-c2noc(C)c2COc2ccc(C(=O)NC(C)(C)C(F)(F)F)nn2)cn1 [Example 64, 6-((5-methyl-3-(6-methylpyridin-3-yl)isoxazol-4-yl)methoxy)-N-(1,1,1-trifluoro-2-methylpropan-2-yl)pyridazine-3-carboxamide]	86%	1.86	17.6 nM
Cc1ccc(-c2noc(C)c2COc2ccc(C(=O)N3CC(C)(F)C3)nn2)cn1 [Example 67, (3-fluoro-3-methylazetidin-1-yl)(6-((5-methyl-3-(6-methylpyridin-3-yl)isoxazol-4-yl)methoxy)pyridazin-3-yl)methanone]	59%	1.59	11.8 nM

Further lines, results first:

Efficacy (GABA) % [1]	Fold increase h-GABA-A α5β3γ2 oocyte [1]	Ki [2]	Structure (SMILES)
70%	1.7	13.6 nM	Cc1ccc(-c2noc(C)c2COc2ccc(C(=O)NCC3(C)COC3)nn2)cn1 [Example 49, 6-((5-methyl-3-(6-methylpyridin-3-yl)isoxazol-4-yl)methoxy)-N-((3-methyloxetan-3-yl)methyl)pyridazine-3-carboxamide]
72%	1.72	7.6 nM	Cc1ccc(-c2noc(C)c2COc2ccc(C(=O)NCC3COC3)nn2)cn1 [Example 50, 6-((5-methyl-3-(6-methyl-3-pyridyl)isoxazol-4-yl)methoxy)-N-(oxetan-3-ylmethyl)pyridazine-3-carboxamide]
57%	1.57	10.8 nM	Cc1ccc(-c2noc(C)c2COc2ccc(C(=O)NCC3(O)COC3)nn2)cn1 [Example 51, N-((3-hydroxyoxetan-3-yl)methyl)-6-((5-methyl-3-(6-methylpyridin-3-yl)isoxazol-4-yl)methoxy)pyridazine-3-carboxamide]
67%	1.67	28.9 nM	Cc1ccc(-c2noc(C)c2COc2ccc(C(=O)N[C@@H]3CCOC[C@@H]3C)nn2)cn1 [Example 52, 6-((5-methyl-3-(6-methylpyridin-3-yl)isoxazol-4-yl)methoxy)-N-((3R,4R)-3-methyltetrahydropyran-4-yl)pyridazine-3-carboxamide]
86%	1.86	19.9 nM	COCC1(NC(=O)c2ccc(OCc3c(-c4ccc(C)nc4)noc3C)nn2)CC1 [Example 54, N-(1-(methoxymethyl)cyclopropyl)-6-((5-methyl-3-(6-methylpyridin-3-yl)isoxazol-4-yl)methoxy)pyridazine-3-carboxamide]
57%	1.57	8.6 nM	COC1CN(C(=O)c2ccc(OCc3c(-c4ccc(C)nc4)noc3C)nn2)C1 [Example 55, (3-methoxyazetidin-1-yl)(6-((5-methyl-3-(6-methylpyridin-3-yl)isoxazol-4-yl)methoxy)pyridazin-3-yl)methanone]
64%	1.64	7.2 nM	Cc1ccc(-c2noc(C)c2COc2ccc(C(=O)N3CCC3)nn2)cn1 [Example 57, azetidin-1-yl(6-((5-methyl-3-(6-methylpyridin-3-yl)isoxazol-4-yl)methoxy)pyridazin-3-yl)methanone]
99%	1.99	93.4 nM	Cc1ccc(-c2noc(C)c2COc2ccc(C(=O)N3CCOCC3)nn2)cn1 [Example 60, (6-((5-methyl-3-(6-methylpyridin-3-yl)isoxazol-4-yl)methoxy)pyridazin-3-yl)(morpholino)methanone]
58%	1.58	7.1 nM	Cc1ccc(-c2noc(C)c2COc2ccc(C(=O)N3CC4(COC4)C3)nn2)cn1 [Example 61, (6-((5-methyl-3-(6-methylpyridin-3-yl)isoxazol-4-yl)methoxy)pyridazin-3-yl)(2-oxa-6-azaspiro[3.3]heptan-6-yl)methanone]
62%	1.62	7.2 nM	Cc1ccc(-c2noc(C)c2COc2ccc(C(=O)N3CC(F)C3)nn2)cn1 [Example 65, (3-fluoroazetidin-1-yl)(6-((5-methyl-3-(6-methylpyridin-3-yl)isoxazol-4-yl)methoxy)pyridazin-3-yl)methanone]
69%	1.69	5.8 nM	Cc1ccc(-c2noc(C)c2COc2ccc(C(=O)N3CC(O)C3)nn2)cn1 [Example 66, (3-hydroxyazetidin-1-yl)(6-((5-methyl-3-(6-methylpyridin-3-yl)isoxazol-4-yl)methoxy)pyridazin-3-yl)methanone]
